Assay results taken from US12049450B2, “Pyridyloxy-carboxylate derivative and preparation method therefor, herbicidal composition, and use” (Qingdao Kingagroot Chemical Compound Co., Ltd., priority 2018, dated 2024).

Experiments:
Assay in all cases: Post-emergence test experiment (greenhouse pot, spray at 2-3 leaf stage)
Assay type in all cases: in vivo
Conditions in all cases: 1000 g/ha; post-emergence spray at 2-3 leaf stage; assessed after 3 weeks; fresh weight inhibition rate
Echinochloa crusgalli = tested on: Echinochloa crusgalli
Summary of the method: (§1)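 Activity graded levels 0-5 by fresh-weight inhibition (level 5 above 85%, level 0 below 5%), assessed 3 weeks after treatment. Plants grown in greenhouse pots were sprayed post-emergence at 2-3 leaves using acetone/tween-80 solutions with methyl oleate synergist (1.5 L/ha).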

Abutilon theophrasti = tested on: Abutilon theophrasti
Summary of the method: as §1

Monochoria vaginalis = tested on: Monochoria vaginalis
Summary of the method: as §1

Digitaria sanguinalis = tested on: Digitaria sanguinalis
Summary of the method: as §1

Galium spurium = tested on: Galium spurium
Summary of the method: as §1

SMILES	Activity level (growth inhibition rate) Echinochloa crusgalli (Echinochloa crusgalli)	Activity level (growth inhibition rate) Abutilon theophrasti (Abutilon theophrasti)	Activity level (growth inhibition rate) Monochoria Vaginalis (Monochoria vaginalis)	Activity level (growth inhibition rate) Digitaria sanguinalis (Digitaria sanguinalis)	Activity level (growth inhibition rate) Galium spurium (Galium spurium)
CC(Oc1nc(F)c(Cl)c(N)c1Cl)C(=O)OCc1ccoc1 (stereo not shown) [Compound 213]	5 (Level 5: the growth inhibition rate is greater than 85%)	5 (Level 5: the growth inhibition rate is greater than 85%)	5 (Level 5: the growth inhibition rate is greater than 85%)	5 (Level 5: the growth inhibition rate is greater than 85%)	5 (Level 5: the growth inhibition rate is greater than 85%)
CC(Oc1nc(F)c(Cl)c(N)c1Cl)C(=O)OCc1ccc(Cl)cc1 (stereo not shown) [Compound 204]	5 (Level 5: the growth inhibition rate is greater than 85%)	5 (Level 5: the growth inhibition rate is greater than 85%)	5 (Level 5: the growth inhibition rate is greater than 85%)	5 (Level 5: the growth inhibition rate is greater than 85%)	5 (Level 5: the growth inhibition rate is greater than 85%)
Cc1c(OC(C)C(=O)OCc2ccccc2)ncc(Cl)c1N (stereo not shown) [Compound 21]	5 (Level 5: the growth inhibition rate is greater than 85%)	5 (Level 5: the growth inhibition rate is greater than 85%)	5 (Level 5: the growth inhibition rate is greater than 85%)	5 (Level 5: the growth inhibition rate is greater than 85%)	5 (Level 5: the growth inhibition rate is greater than 85%)
CC(Oc1ncc(C(C)C)c(N)c1Cl)C(=O)OCc1ccccc1 (stereo not shown) [Compound 9]	5 (Level 5: the growth inhibition rate is greater than 85%)	5 (Level 5: the growth inhibition rate is greater than 85%)	5 (Level 5: the growth inhibition rate is greater than 85%)	5 (Level 5: the growth inhibition rate is greater than 85%)	5 (Level 5: the growth inhibition rate is greater than 85%)
CCc1c(OC(C)C(=O)SCc2ccccc2)nc(C(F)(F)F)c(CC)c1N (stereo not shown) [Compound 8]	5 (Level 5: the growth inhibition rate is greater than 85%)	5 (Level 5: the growth inhibition rate is greater than 85%)	5 (Level 5: the growth inhibition rate is greater than 85%)	5 (Level 5: the growth inhibition rate is greater than 85%)	5 (Level 5: the growth inhibition rate is greater than 85%)
CC(Oc1nc(F)c(Cl)c(N)c1Cl)C(=O)SCc1ccccc1Br (stereo not shown) [Compound 229]	5 (Level 5: the growth inhibition rate is greater than 85%)	5 (Level 5: the growth inhibition rate is greater than 85%)	5 (Level 5: the growth inhibition rate is greater than 85%)	5 (Level 5: the growth inhibition rate is greater than 85%)	5 (Level 5: the growth inhibition rate is greater than 85%)
CC(Oc1nc(F)c(Cl)c(N)c1Cl)C(=O)OCc1cccc(Cl)c1Cl (stereo not shown) [Compound 80]	5 (Level 5: the growth inhibition rate is greater than 85%)	5 (Level 5: the growth inhibition rate is greater than 85%)	5 (Level 5: the growth inhibition rate is greater than 85%)	5 (Level 5: the growth inhibition rate is greater than 85%)	5 (Level 5: the growth inhibition rate is greater than 85%)
CC(Oc1nc(F)c(Cl)c(N)c1Cl)C(=O)SCc1ccc(C#N)cc1 (stereo not shown) [Compound 225]	5 (Level 5: the growth inhibition rate is greater than 85%)	5 (Level 5: the growth inhibition rate is greater than 85%)	5 (Level 5: the growth inhibition rate is greater than 85%)	5 (Level 5: the growth inhibition rate is greater than 85%)	5 (Level 5: the growth inhibition rate is greater than 85%)
COCOc1cccc(C)c1COC(=O)C(C)Oc1nc(F)c(Cl)c(N)c1Cl (racemic) [Compound 110]	5 (Level 5: the growth inhibition rate is greater than 85%)	5 (Level 5: the growth inhibition rate is greater than 85%)	5 (Level 5: the growth inhibition rate is greater than 85%)	5 (Level 5: the growth inhibition rate is greater than 85%)	5 (Level 5: the growth inhibition rate is greater than 85%)
CC(Oc1nc(F)c(Cl)c(N)c1Cl)C(=O)OCc1ccc(S(C)(=O)=O)cc1 (stereo not shown) [Compound 105]	5 (Level 5: the growth inhibition rate is greater than 85%)	5 (Level 5: the growth inhibition rate is greater than 85%)	5 (Level 5: the growth inhibition rate is greater than 85%)	5 (Level 5: the growth inhibition rate is greater than 85%)	5 (Level 5: the growth inhibition rate is greater than 85%)
COC(=O)c1ccc(COC(=O)C(C)Oc2nc(F)c(Cl)c(N)c2Cl)cc1 (stereo not shown) [Compound 98]	5 (Level 5: the growth inhibition rate is greater than 85%)	5 (Level 5: the growth inhibition rate is greater than 85%)	5 (Level 5: the growth inhibition rate is greater than 85%)	5 (Level 5: the growth inhibition rate is greater than 85%)	5 (Level 5: the growth inhibition rate is greater than 85%)
CC(Oc1nc(F)c(Cl)c(N)c1Cl)C(=O)OCc1cccc(F)c1 (stereo not shown) [Compound 198]	5 (Level 5: the growth inhibition rate is greater than 85%)	5 (Level 5: the growth inhibition rate is greater than 85%)	5 (Level 5: the growth inhibition rate is greater than 85%)	5 (Level 5: the growth inhibition rate is greater than 85%)	5 (Level 5: the growth inhibition rate is greater than 85%)
CC(Oc1nc(F)c(Cl)c(N)c1Cl)C(=O)OCc1cn(C)cn1 (stereo not shown) [Compound 129]	5 (Level 5: the growth inhibition rate is greater than 85%)	5 (Level 5: the growth inhibition rate is greater than 85%)	5 (Level 5: the growth inhibition rate is greater than 85%)	5 (Level 5: the growth inhibition rate is greater than 85%)	5 (Level 5: the growth inhibition rate is greater than 85%)
CC(Oc1nc(F)c(Cl)c(N)c1Cl)C(=O)SCc1cccc(C(C)C)c1 (stereo not shown) [Compound 71]	5 (Level 5: the growth inhibition rate is greater than 85%)	5 (Level 5: the growth inhibition rate is greater than 85%)	5 (Level 5: the growth inhibition rate is greater than 85%)	5 (Level 5: the growth inhibition rate is greater than 85%)	5 (Level 5: the growth inhibition rate is greater than 85%)
CC(Oc1ncc(Cl)c(N)c1Cl)C(=O)SCc1ccccc1 (stereo not shown) [Compound 23]	5 (Level 5: the growth inhibition rate is greater than 85%)	5 (Level 5: the growth inhibition rate is greater than 85%)	5 (Level 5: the growth inhibition rate is greater than 85%)	5 (Level 5: the growth inhibition rate is greater than 85%)	5 (Level 5: the growth inhibition rate is greater than 85%)
CC(Oc1nc(F)c(Cl)c(N)c1Cl)C(=O)OCn1cncn1 (stereo not shown) [Compound 136]	5 (Level 5: the growth inhibition rate is greater than 85%)	5 (Level 5: the growth inhibition rate is greater than 85%)	5 (Level 5: the growth inhibition rate is greater than 85%)	5 (Level 5: the growth inhibition rate is greater than 85%)	5 (Level 5: the growth inhibition rate is greater than 85%)
CC(Oc1nc(F)c(Cl)c(N)c1Cl)C(=O)OCc1ncno1 (stereo not shown) [Compound 151]	5 (Level 5: the growth inhibition rate is greater than 85%)	5 (Level 5: the growth inhibition rate is greater than 85%)	5 (Level 5: the growth inhibition rate is greater than 85%)	5 (Level 5: the growth inhibition rate is greater than 85%)	5 (Level 5: the growth inhibition rate is greater than 85%)
